Where “and” joins values, the source holds several entries; their conditions need not be identical. Equal values may be shown once. Where a name gives a salt, the structure may show the parent alone.
Key:
[1] = test system: rats; assay: Behavioural experiment - injection into duodenum (with oral control); assay type: in vivo, rat; conditions: for duration of dopaminergic behavior: dur (total duration of action) / duration of dopaminergic behavior: intense stereotypy / duration of dopaminergic behavior: less intense stereotypy: rat, bolus injection into duodenum; for duration of dopaminergic behavior: intense stereotypy / duration of dopaminergic behavior: less intense stereotypy: period after injection
Excerpt: These rats had been operated 1-14 days before the experiment. A plastic tubing was introduced entering through the duodenum wall at about the mid section and bent in such a way that it had its duct directed downwards (i.e. aiming downstream towards the jejunum and being about 2 cm long). An experienced scientist observed the animals for the entire period of pharmacological activity, scoring the behavior and emphasizing the following details:
yawning, sniffing, chewing, licking, rearing, grooming, penile grooming, locomotor activity and stereotypy. The total duration of action where one or several of these behaviors were present was scored.

[2] = test system: dopamine release (striatum); assay: Microdialysis experiment (striatum) with one entero-coated tablet; assay type: in vivo; conditions: rat striatum microdialysis
Description: One entero-coated tablet prepared as described in Example 1 and containing about 5 mg of NPA hydrochloride was administered to a rat in the way described in Pharmacological Experiment 2 and a standard microdialysis was carried out.
Pharmacological Experiment 2 was repeated but using an entero-coated tablet containing about 5 mg of mono-pivaloyl-apomorphine base instead of NPA hydrochloride.
(§1) Pharmacological Experiment 2 was repeated but using an enterocoated tablet prepared as described in Example 3 containing about 1 mg of mono-pivaloyl-N-propyl-noraporphine (MPNPA) base instead of NPA hydrochloride.

[3] = test system: rat; assay: Behavioural experiment - entero-coated pill; assay type: in vivo
Description: One entero-coated tablet prepared as described in Example 1 and containing about 5 mg of NPA hydrochloride was placed under anesthesia (isoflurane) in the throat of a rat and pushed down the throat with a blunt instrument. Within five minutes, the rat was awake and exploring the cage. After about 3 to 4 hours, the rat began to show dopaminergic stimulatory signs like sniffing, chewing, penile licking, grooming and stereotypy with rearing, locomotor activity, intense sniffing and also licking. This stereotypy lasted for more than 24 hours.
as §1

[4] = earlier reports on symmetric di-esters of aporphines; cited from earlier work
[5] = control experiment, administered orally to the same rat, 4 mg/kg
[6] = one entero-coated tablet containing about 5 mg NPA hydrochloride
[7] = one entero-coated tablet containing about 5 mg, pushed down the throat
[8] = one entero-coated tablet containing about 5 mg mono-pivaloyl-apomorphine base

Q: Which dopaminergic stimulation observed [1, 5] does the source give for `CN1CCc2cccc3c2[C@H]1Cc1ccc(O)c(O)c1-3` [Apomorphine Hydrochloride, apomorphine hydrochloride] here?
A: Very weak dopaminergic stimulation

Q: What about the “time period in which dopaminergic effects were observed” value [1, 5] of the same compound?
A: 10 to 20 min

Q: What about the “duration of dopaminergic behavior: dur (total duration of action)” value (“duration of dopaminergic behavior: dur” below) ([1]; 4.0 mg/kg) of the same compound?
A: 90 min

Q: What about the “duration of dopaminergic behavior: intense stereotypy” value ([1]; 4.0 mg/kg) of the same compound?
A: intense stereotypy (5-75); less intense min

Q: What about the “duration of dopaminergic behavior: less intense stereotypy” value ([1]; 4.0 mg/kg) of the same compound?
A: 75 to 85 min

Q: What about the “duration of dopaminergic behavior: dur” value ([1]; 5.0 mg/kg, hydrochloride) of the same compound?
A: 95 min and 60 min

Q: And the “duration of dopaminergic behavior: less intense stereotypy” value ([1]; 5.0 mg/kg, hydrochloride, 5 mg/kg)?
A: 40 to 90 min and 45 to 55 min

Q: With `CCCN1CCc2cccc3c2C1Cc1ccc(O)c(OC(=O)C(C)(C)C)c1-3` (stereo not drawn) [MPNPA, mono-pivaloyl-N-propyl-noraporphine] as the compound, how does the “period of continuous decrease of dopamine release” value ([2]; one entero-coated tablet containing about 1 mg MPNPA base) read?
A: between one hour and four hours

Q: And the dopamine release ([2]; one entero-coated tablet containing about 1 mg MPNPA base, at 18 hours after application of the pill)?
A: 80 % of controls

Q: And the “dopamine release, maximal decrease” value ([2]; one entero-coated tablet containing about 1 mg MPNPA base, at four hours)?
A: 30 % of controls

Q: And the “period of intense stereotypy” value ([3]; one entero-coated tablet containing about 1 mg MPNPA base, observed during the microdialysis experiment)?
A: between four hours and eight hours

Q: Which results are given for `CCCN1CCc2cccc3c2[C@H]1Cc1ccc(O)c(O)c1-3` [NPA hydrochloride, 6aR-(-)-N-propyl-norapomorphine]?
A: dopamine release, maximal decrease [2, 6]: about 20% of control values; time of maximal decrease in dopamine release [2, 6]: after about four hours; duration of maximal decrease in dopamine release ([2]; one entero-coated tablet containing about 5 mg NPA hydrochloride, until the experiment was stopped): lasting for several hours; duration of stereotypy [3, 7]: more than 24 hours; time until dopaminergic stimulatory signs began [3, 7]: 3 to 4 h

Q: With `CCCN1CCc2cccc3c2[C@H]1Cc1ccc(O)c(O)c1-3` [NPA, 6aR-(-)-N-propyl-norapomorphine] as the compound, how does the “duration of dopaminergic behavior: dur” value ([1]; 5.0 mg/kg) read?
A: > 540 min

Q: With `CN1CCc2cccc3c2C1Cc1ccc(OC(=O)C(C)(C)C)c(OC(=O)C(C)(C)C)c1-3` (stereo not drawn) [di-pivaloyl ester, di-pivaloyl esters of apomorphine] as the compound, how does the “activity compared with parent compound apomorphine” value [4] read?
A: much less active

Q: Which results are given for monopivaloyl-apomorphine [Mono-Piv-Apo]?
A: dopamine release at maximal decrease [2, 8]: 80 % of control values; maximal decrease of dopamine release [2, 8]: 20%; time after which dopamine release decreases [2, 8]: about 60 minutes; time until dopamine release is back to control values [2, 8]: after about eight hours; duration of dopaminergic behavior: dur (total duration of action) ([1]; 4.6 mg/kg): 120 min; duration of dopaminergic behavior: intense stereotypy ([1]; 4.6 mg/kg): intense stereotypy (5-105); less intense min; duration of dopaminergic behavior: less intense stereotypy ([1]; 4.6 mg/kg): 105 to 115 min; duration of dopaminergic behavior: dur (total duration of action) ([1]; 5.9 mg/kg): 135 min and 120 min; duration of dopaminergic behavior: less intense stereotypy ([1]; 5.9 mg/kg, 5.9 mg/kg): 105 to 130 min and 80 to 90 min
